Earlier results in patent US8673945B2, “Solid pharmaceutical composition comprising amlodipine and losartan” (Hanmi Science Co., Ltd, priority 2009, dated 2014).

- reduction of Cmax of losartan after food ingestion: about 10%
SMILES: CCCCc1nc(Cl)c(CO)n1Cc1ccc(-c2ccccc2-c2nn[nH]n2)cc1 [losartan, 2-butyl-4-chloro-1-[[2′-(1H-tetrazol-5-yl)[1,1′-biphenyl]-4-yl]methyl]-1H-imidazol-5-methanol]
